What all share (type): biochemical
For one assay, the target named is T1, human α-thrombin (Homo sapiens, UniProt P00734).
T1 construct: Purified human α-thrombin was obtained from Enzyme Research Laboratories, Inc; purchased Enzyme Research Laboratories, Inc
The assay can be described thus: In vitro enzyme assay for specificity: Thrombin (fIIa). The conditions noted are these: 30 min preincubation; substrate Pefachrome t-PA. Here is the method: (§1) The ability of compounds to act as a selective inhibitor of matriptase activity was assessed by determining the concentration of test-compound which inhibited the activity of matriptase by 50%, (IC50) as described in Example A, and comparing IC50 value for matriptase to that determined for all or some of the following serine proteases: thrombin, recombinant tissue plasminogen activator (rt-PA), plasmin, activated protein C, chymotrypsin, factor Xa and trypsin.
(§2) The buffer used for all assays was HBSA (10 mM HEPES, pH 7.5, 150 mM sodium chloride, 0.1% bovine serum albumin).
(§3) The assay for IC50 determinations was conducted by combining in appropriate wells of a Corning microtiter plate, 50 microliters of HBSA, 50 microliters of the test compound at a specified concentration (covering a broad concentration range) diluted in HBSA (or HBSA alone for V0 (uninhibited velocity) measurement), and 50 microliters of the enzyme diluted in HBSA. Following a 30 minute incubation at ambient temperature, 50 microliters of the substrate at the concentrations specified below were added to the wells, yielding a final total volume of 200 microliters. The initial velocity of chromogenic substrate hydrolysis was measured by the change in absorbance at 405 nm using a Thermo Max® Kinetic Microplate Reader over a 5 minute period in which less than 5% of the added substrate was utilized. The concentration of added inhibitor which caused a 50% decrease in the initial rate of hydrolysis was defined as the IC50 value.
Enzyme activity was determined using the chromogenic substrate, Pefachrome t-PA (CH3SO2-D-hexahydrotyrosine-glycyl-L-Arginine-p-nitroaniline, obtained from Pentapharm Ltd.). The substrate was reconstituted in deionized water prior to use. Purified human α-thrombin was obtained from Enzyme Research Laboratories, Inc. The buffer used for all assays was HBSA (10 mM HEPES, pH 7.5, 150 mM sodium chloride, 0.1% bovine serum albumin).
The initial velocity of Pefachrome t-PA hydrolysis was measured by the change in absorbance at 405 nm using a Thermo Max® Kinetic Microplate Reader over a 5 minute period in which less than 5% of the added substrate was utilized. The concentration of added inhibitor which caused a 50% decrease in the initial rate of hydrolysis was defined as the IC50 value.

For another assay, the target named is T2, human plasmin (Homo sapiens, UniProt P00747).
T2 construct: Purified human plasmin was obtained from Enzyme Research Laboratories, Inc; purchased Enzyme Research Laboratories, Inc
T2 sequence (P00747 581-810 limits assumed): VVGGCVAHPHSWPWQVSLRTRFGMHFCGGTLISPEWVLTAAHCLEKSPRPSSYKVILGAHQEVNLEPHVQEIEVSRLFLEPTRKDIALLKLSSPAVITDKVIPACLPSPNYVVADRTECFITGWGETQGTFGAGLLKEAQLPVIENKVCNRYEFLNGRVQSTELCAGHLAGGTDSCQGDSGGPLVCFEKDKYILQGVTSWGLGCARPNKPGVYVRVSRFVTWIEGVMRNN
T2 sequence (P00747 97-580 partner limits assumed): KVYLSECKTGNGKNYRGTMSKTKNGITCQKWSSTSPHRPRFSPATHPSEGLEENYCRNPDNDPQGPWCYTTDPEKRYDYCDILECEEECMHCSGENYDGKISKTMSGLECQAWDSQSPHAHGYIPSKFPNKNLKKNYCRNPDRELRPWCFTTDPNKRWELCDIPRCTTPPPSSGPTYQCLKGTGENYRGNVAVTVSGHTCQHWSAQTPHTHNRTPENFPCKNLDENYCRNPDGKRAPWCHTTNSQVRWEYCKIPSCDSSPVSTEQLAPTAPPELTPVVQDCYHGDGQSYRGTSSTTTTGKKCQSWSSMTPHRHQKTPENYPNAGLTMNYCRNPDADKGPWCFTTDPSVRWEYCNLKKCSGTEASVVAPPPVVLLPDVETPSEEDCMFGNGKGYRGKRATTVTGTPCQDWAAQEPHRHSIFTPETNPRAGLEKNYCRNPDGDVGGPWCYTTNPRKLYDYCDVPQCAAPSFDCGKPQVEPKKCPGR
Nature of the assay: In vitro enzyme assay for specificity: Plasmin. The conditions noted are these: 30 min preincubation; substrate S-2366. Here is the method:
as §1, §2, §3
Plasmin catalytic activity was determined using the chromogenic substrate, S-2366 [L-pyroglutamyl-L-prolyl-L-arginine-p-nitroaniline hydrochloride], which was obtained from DiaPharma group. The substrate was made up in deionized water followed by dilution in HBSA prior to the assay in which the final concentration was 300 micromolar (about 2.5-times Km). Purified human plasmin was obtained from Enzyme Research Laboratories, Inc. The enzyme was diluted into HBSA prior to assay in which the final concentration was 1.0 nM.

The next assay deals with T3, Factor Xa (Homo sapiens, UniProt P00742).
T3 construct: purchased Enzyme Research Laboratories, Inc. (South Bend, Ind.)
T3 sequence (P00742 235-488 limits assumed): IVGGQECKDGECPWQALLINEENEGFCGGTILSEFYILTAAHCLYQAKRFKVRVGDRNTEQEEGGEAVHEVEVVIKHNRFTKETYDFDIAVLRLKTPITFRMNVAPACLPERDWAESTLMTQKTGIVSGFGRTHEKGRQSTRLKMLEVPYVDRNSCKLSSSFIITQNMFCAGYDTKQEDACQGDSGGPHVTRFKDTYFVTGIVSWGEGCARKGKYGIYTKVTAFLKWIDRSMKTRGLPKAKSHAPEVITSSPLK
T3 sequence (P00742 41-179 partner limits assumed): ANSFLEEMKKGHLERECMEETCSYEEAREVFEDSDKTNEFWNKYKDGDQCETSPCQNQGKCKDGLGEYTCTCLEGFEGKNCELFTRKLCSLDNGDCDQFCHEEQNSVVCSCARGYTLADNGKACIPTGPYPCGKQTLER
The assay can be described thus: In vitro enzyme assay for specificity: Factor Xa. The conditions noted are these: 30 min preincubation; substrate S-2765; read-out: FXa IC50 30 Min. Here is the method: as §1, §2, §3
Factor Xa catalytic activity was determined using the chromogenic substrate S-2765 (N-benzyloxycarbonyl-D-arginine-L-glycine-L-arginine-p-nitro aniline), obtained from DiaPharma Group (Franklin, Ohio). All substrates were reconstituted in deionized water prior to use. […] Purified human Factor X was obtained from Enzyme Research Laboratories, Inc. (South Bend, Ind.) and Factor Xa (FXa) was activated and prepared from it as described [Bock, P. E., Craig, P. A., Olson, S. T., and Singh, P. Arch. Biochem. Biophys. 273:375–388 (1989)]. The enzyme was diluted into HBSA prior to assay in which the final concentration was 0.25 nM.

In assay [1] the target is T4, recombinant serine protease domain of matriptase or MTSP1 (rMAP) (Homo sapiens, UniProt Q9Y5Y6).
T4 construct: host or cells: Pichia pastoris SMD1168 / pPIC9K-MTSP1
T4 sequence (Q9Y5Y6 615-855): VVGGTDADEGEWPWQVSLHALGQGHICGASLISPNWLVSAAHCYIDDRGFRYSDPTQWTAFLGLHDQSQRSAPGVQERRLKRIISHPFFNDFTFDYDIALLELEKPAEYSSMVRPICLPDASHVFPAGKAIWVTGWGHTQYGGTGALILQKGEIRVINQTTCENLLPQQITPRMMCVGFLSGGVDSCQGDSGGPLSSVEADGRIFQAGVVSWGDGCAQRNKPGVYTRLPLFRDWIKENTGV
Nature of the assay: Amidolytic assay for inhibition of serine protease activity of matriptase or MTSP1 (rMAP). The conditions noted are these: 30 min preincubation of compound and rMAP; substrate S-2765. The method, then: The ability of the compounds of the present invention to act as inhibitors of rMAP catalytic activity was assessed by determining the inhibitor-induced inhibition of amidolytic activity by the MAP, as measured by IC50 values.
The assay buffer was HBSA (10 mM Hepes, 150 mM sodium chloride, pH 7.4, 0.1% bovine serum albumin). All reagents were from Sigma Chemical Co. (St. Louis, Mo.), unless otherwise indicated.
Two IC50 assays (a) one at either 30-minutes or 60-minutes (a 30-minute or a 60-minute preincubation of test compound and enzyme) and (b) one at 0-minutes (no preincubation of test compound and enzyme) were conducted. […] Following either a 30-minute or a 60-minute incubation at ambient temperature, the assay was initiated by the addition of 50 microliters of the substrate S-2765 (N-α-Benzyloxycarbonyl-D-arginyl-L-glycyl-L-arginine-p-nitroaniline dihydrochloride; DiaPharma Group, Inc.; Franklin, Ohio) to each well, yielding a final assay volume of 200 microliters and a final substrate concentration of 100 μM (about 4-times Km). Before addition to the assay mixture, S-2765 was reconstituted in deionized water and diluted in HBSA. For the IC50 assay at 0 minutes; the same reagents were combined: 50 microliters of HBSA, 50 microliters of the test compound, diluted (covering the identical concentration range) in HBSA (or HBSA alone for uninhibited velocity measurement), and 50 microliters of the substrate S-2765. The assay was initiated by the addition of 50 microliters of rMAP. The final concentrations of all components were identical in both IC50 assays (at 30- or 60- and 0-minute).
The initial velocity of chromogenic substrate hydrolysis was measured in both assays by the change of absorbance at 405 nm using a Thermo Max® Kinetic Microplate Reader (Molecular Devices) over a 5 minute period, in which less than 5% of the added substrate was utilized. The concentration of added inhibitor, which caused a 50% decrease in the initial rate of hydrolysis was defined as the respective IC50 value in each of the two assays (30- or 60-minutes and 0-minute).

For assay [2], the target named is T5, bovine pancreatic trypsin (Bos taurus, UniProt P00760).
T5 construct: Purified (3×-crystallized; TRL3) bovine pancreatic trypsin was obtained from Worthington Biochemical Corp; purchased Worthington Biochemical Corp. TRL3; host or cells: bovine pancreas
T5 sequence (P00760 24-246): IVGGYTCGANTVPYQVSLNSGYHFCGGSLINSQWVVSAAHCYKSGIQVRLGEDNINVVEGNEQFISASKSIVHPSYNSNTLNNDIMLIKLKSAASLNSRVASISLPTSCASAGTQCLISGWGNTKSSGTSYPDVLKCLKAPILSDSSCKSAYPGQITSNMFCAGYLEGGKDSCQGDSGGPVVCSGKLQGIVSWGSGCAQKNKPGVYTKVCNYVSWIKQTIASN
Nature of the assay: In vitro enzyme assay for specificity: Trypsin. The conditions noted are these: 30 min preincubation; substrate S-2222; read-out: Thypsin IC50 30 Min. Here is the method: as §1, §2, §3
Trypsin catalytic activity was determined using the chromogenic substrate, S-2222 (benzoyl-L-isoleucine-L-glutamic acid-[gamma-methyl ester]-L-arginine-p-nitroanilide), which was obtained from DiaPharma Group. […] Purified (3×-crystallized; TRL3) bovine pancreatic trypsin was obtained from Worthington Biochemical Corp. The enzyme was reconstituted in deionized water and diluted into HBSA prior to assay in which the final concentration was 0.5 nM.

The structures appear in SMILES notation. Bounds are passed on as bounds.

Usually IC50 stands for the midpoint of a concentration-inhibition curve. Regarding `CCNC(=O)N[C@](CCC(=O)O)(Cc1cccc(C(=N)N)c1)C(=O)NCC(=O)N[C@H](C=O)CCCNC(=N)N` [H], the concentration for half-maximal inhibition (IC50) was above 2.5 µM on human α-thrombin; above 2.5 µM against human plasmin; above 2.5 µM on Factor Xa; below 0.1 µM in assay [1]; above 2.5 µM in assay [2].

Consider `COC(=O)N[C@](CCC(=O)O)(Cc1cccc(C(=N)N)c1)C(=O)N[C@@H](C)C(=O)N[C@H](C=O)CCCNC(=N)N` [F], for which the half-maximal inhibitory concentration (IC50) against human α-thrombin was above 2.5 µM; against human plasmin, 0.5 to 2.5 µM; on Factor Xa, above 2.5 µM; in assay [1], below 0.1 µM; in assay [2], 0.5 to 2.5 µM.

With `CC(C)COC(=O)N[C@](CCC(=O)O)(Cc1cccc(C(=N)N)c1)C(=O)NCC(=O)N[C@H](C=O)CCCNC(=N)N` [L], the half-maximal inhibitory concentration (IC50) is above 2.5 µM against human α-thrombin; above 2.5 µM against human plasmin; above 2.5 µM on Factor Xa; below 0.1 µM in assay [1]; above 2.5 µM in assay [2].

As to `COC(=O)N[C@](CCC(=O)O)(Cc1cccc(C)c1)C(=O)N[C@@H](C)C(=O)N[C@H](C=O)CCCNC(=N)N` [G], the IC50 against human α-thrombin was above 2.5 µM; on human plasmin, 0.5 to 2.5 µM; on Factor Xa, above 2.5 µM; in assay [1], below 0.1 µM; in assay [2], below 0.1 µM.

For the compound `N=C(N)NCCCC(C=O)NC(=O)CNC(=O)C(CCC(=O)O)(Cc1cccc(C(=N)N)c1)NS(=O)(=O)Cc1ccccc1` (stereo not drawn) [B], the IC50 at human α-thrombin was 0.5 to 2.5 µM; against human plasmin, above 2.5 µM; at Factor Xa, above 2.5 µM; in assay [1] it was below 0.1 µM; in assay [2], above 2.5 µM.

Consider `CC(=O)N[C@](CCC(=O)O)(Cc1cccc(C(=N)N)c1)C(=O)NCC(=O)N[C@H](C=O)CCCNC(=N)N` [E], for which the IC50 is above 2.5 µM on human α-thrombin; above 2.5 µM against human plasmin; above 2.5 µM at Factor Xa; below 0.1 µM in assay [1]; above 2.5 µM in assay [2].

With `CCOC(=O)N[C@](CCC(=O)O)(Cc1cccc(C(=N)N)c1)C(=O)NCC(=O)N[C@H](C=O)CCCNC(=N)N` [K], the concentration for half-maximal inhibition (IC50) against human α-thrombin was above 2.5 µM; against human plasmin it was above 2.5 µM; on Factor Xa, above 2.5 µM; in assay [1] it was below 0.1 µM; in assay [2], above 2.5 µM.

`N=C(N)NCCC[C@@H](C=O)NC(=O)CNC(=O)[C@@](CCC(=O)O)(Cc1cccc(C(=N)N)c1)NC(=O)Oc1ccccc1` [M]: the IC50 is above 2.5 µM against human α-thrombin; above 2.5 µM against human plasmin; 0.5 to 2.5 µM at Factor Xa; below 0.1 µM in assay [1]; 0.25 to 0.5 µM in assay [2].

As for `COC(=O)N[C@](CCC(=O)O)(Cc1ccccc1)C(=O)NCC(=O)N[C@H](C=O)CCCNC(=N)N` [I], the IC50 was above 2.5 µM on human α-thrombin; above 2.5 µM against human plasmin; 0.5 to 2.5 µM on Factor Xa; below 0.1 µM in assay [1]; 0.5 to 2.5 µM in assay [2].

Turning to `N=C(N)NCCC[C@@H](C=O)NC(=O)CNC(=O)[C@@](N)(CCC(=O)O)Cc1cccc(C(=N)N)c1` [A], the IC50 was above 2.5 µM against human α-thrombin; 0.5 to 2.5 µM against human plasmin; above 2.5 µM on Factor Xa; below 0.1 µM in assay [1]; 0.25 to 0.5 µM in assay [2].

In the case of `COC(=O)N[C@](CCC(=O)O)(Cc1cccc(C(=N)N)c1)C(=O)NCC(=O)N[C@H](C=O)CCCNC(=N)N` [D], the IC50 against human α-thrombin is above 2.5 µM; at human plasmin it was above 2.5 µM; on Factor Xa, above 2.5 µM; in assay [1], below 0.1 µM; in assay [2] it was above 2.5 µM.

With `COC(=O)CCC(N)(Cc1cccc(C(=N)N)c1)C(=O)NCC(=O)NC(C=O)CCCNC(=N)N` (stereo not drawn) [C], the concentration for half-maximal inhibition (IC50) is above 2.5 µM against human α-thrombin; 0.5 to 2.5 µM against human plasmin; above 2.5 µM on Factor Xa; below 0.1 µM in assay [1]; 0.5 to 2.5 µM in assay [2].
